For orientation: IC50 means the concentration that gives 50% inhibition.

HCV NS3 protease, sequence (P26662 1027-1206, other chains not shown): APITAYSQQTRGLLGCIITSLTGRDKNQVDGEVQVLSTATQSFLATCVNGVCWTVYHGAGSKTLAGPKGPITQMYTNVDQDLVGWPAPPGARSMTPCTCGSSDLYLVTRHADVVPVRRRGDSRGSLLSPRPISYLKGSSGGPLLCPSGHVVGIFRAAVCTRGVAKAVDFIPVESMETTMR

One experiment concerns the target HCV NS3 protease (Hepatitis C virus genotype 1b, UniProt P26662). Nature of the experiment: Microplate protease activity assay. In kind it is biochemical, hepatitis C virus (J strain). Particulars: Table I; inhibition of HCV NS3 protease, co-factor Pep4AK, tritiated substrate. The protocol: Microplate Protease Activity Assay
The HCV-protease (J strain) was stored until use at −80° C. in 250 mM NaCl, phosphate buffer pH 6.5, 50% glycerol, 0.1% CHAPS. As protease co-factor the peptide Pep4AK (KKKGSVVIVGRIILSGR-NH2), spanning the central hydrophobic core (residues 21–34) of the NS4A protein, with a three-lysine tag at the N-terminus to increase solubility (Bianchi, E. et al., Biochemistry 36, 7890–7897;1997), was used. Pep4AK was stored at −80° C. in DMSO; the tritiated substrate Ac-DEMEECASHLPYK (^3H-Ac)-NH2, and the corresponding cold substrate Ac-DEMEECASHLPYK(Ac)-NH2 were stored at −80° C. in DMSO/DTT.
The assay was run in Costar polypropylene 96-well plates. The composition of the reaction mixture was as follows (100 μl): • Glycerol 15% • DTT 30 mM • Hepes pH 7,5 50 mM • Triton X-100 0.05% • Protease 10 nM • hot+cold substrate 5 μM (300.000 cpm) • Pep4AK 15 μM
Test compounds were dissolved—in DMSO (final concentration 10% DMSO)
Pep4AK was pre-incubated with protease for 5 min prior to addition of substrate mix. In these conditions, the substrate Km was 7±2 μM. Test compounds were added at 8 different concentrations in 8 different wells. Plates were shaken for 30 minutes at room temperature, then an ionic exchange resin (100 μl of 20% Fractogel TSK-DEAE® 650S, Merck) was added to capture unprocessed substrate and plates shaken for another 10 minutes. After allowing the resin to settle by centrifugation, 30 μl of the reaction mix were transferred in a 96-well plate (Picoplate, Packard), admixed with 250 μl of scintillation cocktail Microscint 40, and the radioactivity measured in a scintillation Packard Top Count β-counter.
IC50 was calculated from the test compound dilution curve, as the concentration of compound giving 50% inhibitions.
`CC(C)C[C@H](NC(=O)[C@H](CC(=O)O)NC(=O)[C@H](CC1CCCCC1)NC(=O)[C@@H]1CCCC[C@H]1C(=O)O)C(N)=O` (single isomer, unassigned) [Example 1, R1R-cyclohexane-1,2-dicarboxylate monoamide of Cha-Asp-Leu-NH2] gave an IC50 of 15 µM.

`CC(C)C[C@H](NC(=O)[C@H](CC(=O)O)NC(=O)[C@H](CC1CCCCC1)NC(=O)[C@H]1CCCC[C@@H]1C(=O)O)C(N)=O` [Example 2, SS-cyclohexane-1,2-dicarboxylate monoamide of Cha-Asp-Leu-NH2] returned an IC50 of 54 µM.

As to `CCNC(=O)[C@H](CC(C)C)NC(=O)[C@H](CC(=O)O)NC(=O)[C@H](CC1CCCCC1)NC(=O)C1=C(C(=O)O)CCCC1` [Example 4], the IC50 was 38 µM.

With `CC(C)C[C@H](NC(=O)[C@H](CC(=O)O)NC(=O)[C@H](CC1CCCCC1)NC(=O)[C@@H]1CCC[C@H]1C(=O)O)C(N)=O` [Example 5], the IC50 turned out to be 60 µM.

Take `CC(C)C[C@H](NC(=O)[C@H](CC(=O)O)NC(=O)[C@H](CC1CCCCC1)NC(=O)c1ccccc1C(=O)O)C(N)=O` [Example 6]: 64 µM corresponded to half-maximal inhibition (IC50).

As for `CCNC(=O)[C@H](CC(C)C)NC(=O)[C@H](CC(=O)O)NC(=O)[C@H](CC1CCCCC1)NC(=O)c1ccccc1C(=O)O` [Example 7], the IC50 was 64 µM.

“S,S-cyclohexane-1,2-dicarboxylate monoamide of Cha-Asp-Leu-NHEt [Example 3]” yielded an IC50 of 32 µM.

The same experiment, now with this note: Table II; inhibition of HCV NS3 protease, co-factor Pep4AK, tritiated substrate.
As for `CC(C)CC(NC(=O)C(CC(=O)O)NC(=O)C(NC(=O)C1CCCCC1C(=O)O)c1cccc(OC(=O)CC(c2ccccc2)c2ccccc2)c1)C(N)=O` (single isomer, unassigned) [Example 8], inhibition was half-maximal at 13 µM (IC50).

The molecule `CC(C)C[C@H](NC(=O)[C@H](CC(=O)O)NC(=O)[C@@H](NC(=O)[C@@H]1CCCC[C@H]1C(=O)O)c1cccc(OC(=O)Cc2cccc3ccccc23)c1)C(N)=O` [Example 9] had an IC50 of 22 µM.

For the molecule `CC(C)C[C@H](NC(=O)[C@H](CC(=O)O)NC(=O)[C@@H](NC(=O)[C@@H]1CCCC[C@H]1C(=O)O)c1cccc(OC(=O)Cc2ccc3ccccc3c2)c1)C(N)=O` [Example 10], the IC50 is 22 µM.

`CC(C)C[C@H](NC(=O)[C@H](CC(=O)O)NC(=O)[C@@H](NC(=O)[C@@H]1CCCC[C@H]1C(=O)O)c1cccc(OC(=O)[C@@H]2CCCC[C@H]2C(=O)O)c1)C(N)=O` [Example 11] displayed an IC50 of 35 µM.

Take `CC(C)C[C@H](NC(=O)[C@H](CC(=O)O)NC(=O)[C@@H](NC(=O)[C@@H]1CCCC[C@H]1C(=O)O)c1ccc(Cl)cc1)C(N)=O` [Example 12]: the IC50 was 37 µM.

On to `CC(C)C[C@H](NC(=O)[C@H](CC(=O)O)NC(=O)[C@@H](NC(=O)[C@@H]1CCCC[C@H]1C(=O)O)c1ccccc1)C(N)=O` [Example 13], for which the IC50 is 40 µM.

The molecule `CC(C)C[C@H](NC(=O)[C@H](CC(=O)O)NC(=O)[C@@H](NC(=O)[C@@H]1CCCC[C@H]1C(=O)O)c1ccccc1F)C(N)=O` [Example 14] showed an IC50 of 47 µM.

In turn, `CC(C)C[C@H](NC(=O)[C@H](CC(=O)O)NC(=O)[C@@H](NC(=O)[C@@H]1CCCC[C@H]1C(=O)O)c1ccc(Br)cc1)C(N)=O` [Example 15] returned an IC50 of 26 µM.

The experiment is the same for the next values; noted with them: Table III; inhibition of HCV NS3 protease, co-factor Pep4AK, tritiated substrate.
The molecule `CC(C)C[C@H](NC(=O)[C@H](CCC(=O)O)NC(=O)[C@H](CC1CCCCC1)NC(=O)[C@@H]1CCCC[C@H]1C(=O)O)C(N)=O` [Example 16] returned an IC50 of 41 µM.

As for `CC(C)C[C@H](NC(=O)[C@H](CC(=O)O)N(C)C(=O)[C@H](CC1CCCCC1)NC(=O)[C@@H]1CCCC[C@H]1C(=O)O)C(N)=O` [Example 17], it took 100 µM to reach half-maximal inhibition (IC50).

Turning to `CC(C)C[C@H](NC(=O)[C@H](CC(=O)O)N(C)C(=O)[C@H](CC1CCCCC1)NC(=O)c1ccccc1C(=O)O)C(N)=O` [Example 18], it took 115 µM to reach half-maximal inhibition (IC50).

The same experiment, now with this note: Table IV; inhibition of HCV NS3 protease, co-factor Pep4AK, tritiated substrate.
Molecule `O=C(O)CCN(CCC(c1ccccc1)c1ccccc1)C(=O)[C@@H](NC(=O)[C@@H]1CCCC[C@H]1C(=O)O)c1ccccc1` (single isomer, unassigned) [Example 19] gave an IC50 of 14 µM.

For the molecule `O=C(O)CCN(CCC(c1ccccc1)c1ccccc1)C(=O)[C@H](CC1CCCCC1)NC(=O)[C@@H]1CCCC[C@H]1C(=O)O` [Example 20], it took 55 µM to reach half-maximal inhibition (IC50).

Molecule `O=C(O)CCN(CCC(c1ccccc1)c1ccccc1)C(=O)[C@@H](NC(=O)[C@@H]1CCCC[C@H]1C(=O)O)c1ccc(Br)cc1` [Example 21] had an IC50 of 1.7 µM.

As to `O=C(O)CCN(CCC(c1ccccc1)c1ccccc1)C(=O)[C@@H](NC(=O)[C@@H]1CCCC[C@H]1C(=O)O)c1ccc(C(F)(F)F)cc1` [Example 22], the IC50 amounted to 7 µM.

Molecule `O=C(O)CCN(CCC(c1ccccc1)c1ccccc1)C(=O)[C@@H](NC(=O)[C@@H]1CCCC[C@H]1C(=O)O)c1ccccc1F` [Example 23] came in with an IC50 of 6 µM.

On to `CCOC(=O)CCN(CCC(c1ccccc1)c1ccccc1)C(=O)[C@@H](NC(=O)[C@H]1CCCC[C@@H]1C(=O)O)c1ccc(Br)cc1` [Example 24], for which 60 µM corresponded to half-maximal inhibition (IC50).

Consider `NC(=O)CCN(CCC(c1ccccc1)c1ccccc1)C(=O)[C@@H](NC(=O)[C@H]1CCCC[C@@H]1C(=O)O)c1ccc(Br)cc1` [Example 25], for which the IC50 was found to be 59 µM.

Consider `COc1ccccc1CCN(CCC(=O)O)C(=O)[C@@H](NC(=O)[C@@H]1CCCC[C@H]1C(=O)O)c1ccccc1F` [Example 26], for which the IC50 was 44 µM.

For `COc1cccc(CCN(CCC(=O)O)C(=O)[C@@H](NC(=O)[C@@H]2CCCC[C@H]2C(=O)O)c2ccccc2F)c1` [Example 27], the midpoint of inhibition, the IC50, lay at 66 µM.

As for `O=C(O)CCN(CCc1ccccc1Cl)C(=O)[C@@H](NC(=O)[C@@H]1CCCC[C@H]1C(=O)O)c1ccccc1F` [Example 28], the IC50 is 70 µM.

For `O=C(O)CCN(CC(c1ccccc1)c1ccccc1)C(=O)[C@@H](NC(=O)[C@@H]1CCCC[C@H]1C(=O)O)c1ccccc1` [Example 29], the midpoint of inhibition, the IC50, lay at 39 µM.

On to `O=C(O)CCN(CCc1ccc(Cl)cc1Cl)C(=O)[C@@H](NC(=O)[C@@H]1CCCC[C@H]1C(=O)O)c1ccccc1` [Example 30], for which the IC50 turned out to be 49 µM.

The molecule `COc1ccc(CCN(CCC(=O)O)C(=O)[C@@H](NC(=O)[C@@H]2CCCC[C@H]2C(=O)O)c2ccccc2)cc1OC` [Example 31] yielded an IC50 of 123 µM.

As for `O=C(O)CCN(CC(c1ccccc1)c1ccccc1)C(=O)[C@H](CC1CCCCC1)NC(=O)[C@@H]1CCCC[C@H]1C(=O)O` [Example 32], the IC50 is 133 µM.

`O=C(O)CCN(CCc1ccc(Cl)cc1Cl)C(=O)[C@H](CC1CCCCC1)NC(=O)[C@@H]1CCCC[C@H]1C(=O)O` [Example 33]: half-maximal inhibition (IC50) required 177 µM.

For the origin of these results see patent publication US6995177B1, “HCV NS3 protease inhibitors” (Istituto Di Ricerche Di Biologia Molecolare P Angeletti SPA, priority 1999, dated 2006).
